Results as given in paper PMC11537999, “Identification of human pregnane X receptor antagonists utilizing a high-throughput screening platform” (Frontiers in Pharmacology, 2024).

Tests used:
[1] = test system: CYP3A4 mRNA expression; test: CYP3A4 mRNA expression by qRT-PCR in HepaRG cells treated with compound alone; type: cell-based, human; conditions: 24 h, compound at its IC70 concentration, vs DMSO
Protocol: (§1) Fully differentiated NoSpin™ HepaRG™ cells (Lonza, Walkersville, Maryland) were seeded into 12-well collagen-coated plates (Corning) at a density of 8 × 10^5 cells/well using Williams’ E medium (ThermoFisher) supplemented with HepaRG™ thawing and plating medium supplement (Lonza), 25 U/mL penicillin, and 25 μg/mL streptomycin (Invitrogen). The cells were then placed into a 37°C and 5% CO2 incubator for 3 days including a media change before treatment. Cells were then treated with the vehicle control (final concentration of 0.1% DMSO), the positive controls, or test compounds for 24 h before harvesting.
(§2) Total RNA was extracted from the cell lysate using an RNeasy Mini kit (Qiagen) according to the manufacturer’s instructions. RNA was reverse transcribed to cDNA using a High-Capacity RNA-to-cDNA kit (Applied Biosystems). CYP3A4 and CYP2B6 mRNA expression were both measured and normalized to the glyceraldehyde-3-phosphate dehydrogenase (GAPDH) housekeeping gene. Real-time PCR was completed using a QuantStudio Real-Time PCR system (Applied Biosystems) with TaqMan probes (CYP3A4 Assay ID: Hs00604506_m1, CYP2B6 Assay ID: Hs04183483_g1, GAPDH Assay ID: Hs99999905_m1, ThermoFisher Scientific, Waltham, MA). Following amplification, induction values were calculated using the equation: Fold = 2^−ΔΔCt, where ΔCt represents the difference in number of cycles required to reach the Ct threshold between CYP3A4 or CYP2B6 and GAPDH, and ΔΔCt represents the relative change in these differences between the control (DMSO) and treatment groups. Experimental data are expressed as a mean of triplicate values ±SD. Statistical analysis was performed using one-way analysis of variance with post hoc Dunnett’s analysis. The statistical significance values were set at p < 0.05 (*), p < 0.01 (**), and p < 0.001 (***).
To overcome the previous screening limitations, we used this more physiologically relevant cell line, HepaRG cells, to run follow-up studies with the PXR antagonists identified from the primary screen which used immortalized cell lines without a metabolic component. Using HepaRG cells, the 20 potential PXR antagonists were treated for 24 h and harvested for mRNA (Supplementary Figure S1).
FIGURE 3 HepaRG cells were treated with the top 20 most promising PXR antagonists identified from the high-throughput screen. […] The concentrations for the test compounds were the IC70 values from the original NPACT screen. Real-time PCR was used to analyze the mRNA expression of CYP3A4. Each bar represents the mean ± SD in triplicate. *, p < 0.05; **, p < 0.01.

[2] = test system: CYP3A4 mRNA expression; test: Co-treatment pharmacological assay: CYP3A4 mRNA by qRT-PCR in HepaRG cells co-treated with rifampicin; type: cell-based, human; conditions: for inhibition of CYP3A4 mRNA expression under rifampicin co-treatment (in words): IC50, IC70 or IC90 concentration + 5 μM rifampicin
Protocol: as §1, §2
As previously mentioned, HepG2 cells are not metabolically competent and therefore use of HepaRG cells or human primary hepatocytes is a better choice to confirm PXR antagonists. […]

Row | CYP3A4 mRNA expression, average level ([2]; 15 μM compound + 5 μM rifampicin, DMSO = 1) [fold] | SMILES | inhibition of CYP3A4 mRNA expression (in words) [1] | inhibition of CYP3A4 mRNA expression under rifampicin co-treatment (in words) [2]
1 | – | CC(=O)O[C@H]1C[C@@]2(C)[C@@H](C[C@@H](O)[C@H]3[C@@]4(C)CC[C@@H](O)[C@@H](C)[C@@H]4CC[C@@]32C)/C1=C(\CCC=C(C)C)C(=O)O [fusidic acid] | significantly inhibited CYP3A4 mRNA expression | clear concentration dependent inhibition of CYP3A4 mRNA expression
2 | 0.6 | COc1cc(-c2cn(C3CCc4c(F)cccc4N(CC(F)(F)F)C3=O)nn2)ccc1-n1cnc(C)c1 (centres unmarked) [GSM2] | significantly inhibited CYP3A4 mRNA expression | clear concentration dependent inhibition of CYP3A4 mRNA expression
